Experimental data: patent publication US20230149337A1, “OPHTHALMIC FORMULATION AND ITS USE” (OY FINNSUSP AB, priority 2020, published 2023)
Converted amounts (≈) assume the structure as drawn. Where two headings read alike, the source gives them in different places.

Experiments:
[1] = Solubility of dexamethasone in microemulsion formulations; type: physicochemical; conditions: for solubility: aqueous with cosolvent or surfactant or cyclodextrin, equilibrium from dmso stock, room temperature, 8-9 days, read-out: Solubility of DXM
Method: The solubility of dexamethasone (DXM) in the microemulsion formulations was studied. To formulations containing 0.1%, 0.5%, 1%, or 5% of the sacha inchi seed oil, DXM ([…] stock in dimethyl sulfoxide, DMSO) was added at concentrations of […] in triplicate. […] The test vials were incubated at room temperature with continuous shaking (90 rpm) for 8-9 days until equilibrium. After incubation, the samples were mixed 1:1 with acetonitrile for 10 min and centrifuged (13,000 rpm, 10 min), followed by immediate HPLC analysis of the supernatant for DXM concentration. HPLC analysis was performed with Agilent 1100 series HPLC system and Eclipse XDB-C18 column (1.8 μm, 4.6×50 mm; Agilent) maintained at 60° C. Isocratic elution of the 5-μl sample injected was performed with 65% Eluent A (1% TFA in Milli-Q water) and 35% Eluent B (0.1% TFA in acetonitrile) at flow rate 1 ml/min and UV detection at 240 nm.

[2] = Langmuir trough: surface pressure isotherms and BAM of pure films; type: physicochemical; conditions: pure film under compression
Method: The interactions of the microemulsion formulation SIME02A explained in Example 2 with a tear film lipid layer (TFLL) component were studied in a Langmuir trough model system. A naturally occurring lipid 20 (oleoyloxy)icosanoic acid (20-OAHFA) which represents the O-acyl-ω-hydroxy fatty acids in the TFLL was selected as a model lipid and synthesized as described in Bland et al. Langmuir 2019, 35, 3545-3552. The experiments were performed on a KSV NIMA Large trough equipped with a surface pressure balance with a platinum Wilhelmy plate, a KSV SPOT surface potential meter and KSV NIMA microBAM Brewster angle microscope (BAM), all from Biolin Scientific (Stockholm, Sweden). The Langmuir trough system was enclosed in a plastic hood with an inlet supply of dry and ozone-depleted air (Ozone solutions ODS-3P, Hull, Iow. USA) to prevent oxidation of lipids.
The Langmuir trough was filled with phosphate-buffered saline (PBS) as a subphase maintained at 35±1° C. to emulate the aqueous layer of the tear film. The model lipid 20-OAHFA or pure sacha inchi (SI) seed oil was dissolved in chloroform and spread on the surface of the PBS subphase. Chloroform was allowed to evaporate for 5 min. […] The lipid film was compressed and expanded in the trough with two Delrin barriers at a rate of 13 mm/min while the surface pressure and surface potential were measured. […]

SMILES	Solubility of DXM relative to PBS ([1]; 1% oil concentration in the formulation) [times]	solubility ([1]; microemulsion formulation with 5% sacha inchi seed oil, microemulsion with 5% oil) [µg/mL]	Solubility of DXM relative to PBS ([1]; microemulsion with 5% oil)	Solubility of DXM relative to PBS ([1]; microemulsions with lower oil concentrations)	solubility ([1]; phosphate-buffered saline (PBS), PBS alone) [µg/mL]	Surface pressure of transition to a solid monolayer [2] [mN/m]
C[C@@H]1C[C@H]2[C@@H]3CCC4=CC(=O)C=C[C@]4(C)[C@@]3(F)[C@@H](O)C[C@]2(C)[C@@]1(O)C(=O)CO [DXM, Dexamethasone]	2.5	~3700 (≈ 9.43 mM)	about 15 times	at the same level as in PBS	~250 (≈ 0.637 mM)	
CCCCCCCC/C=C\CCCCCCCC(=O)OCCCCCCCCCCCCCCCCCCCC(=O)O [20-OAHFA, 20 (oleoyloxy)icosanoic acid]						2.5
